Data taken from paper PMC11491487 (Nature Communications, 2024).
Where “and” joins values, the source holds several entries; their conditions need not be identical. Equal values may be shown once.

Columns and labels:
rRyR1 C4657I = target: T1, rRyR1 C4657I (Oryctolagus cuniculus, UniProt P11716, C4657I); assay: time-lapse [Ca2+]ER fluorescence assay, HEK293 cells; assay type: cell-based, rabbit; settings: n = 3
T1 construct: expressed in transfected cells

chiRyR [1] = target: T2, chiRyR (Oryctolagus cuniculus, UniProt P11716, C4657I/F4564Y/L4792S/R4563K); assay: cell-based; parameters: species or system rabbit
rRyR1 R4563K = target: T3, rRyR1 R4563K (Oryctolagus cuniculus, UniProt P11716, R4563K); assay: time-lapse [Ca2+]ER fluorescence assay, HEK293 cells; assay type: cell-based, rabbit; settings: n = 3
T3 construct: expressed in transfected cells

[2] = test system: Drosophila melanogaster RyR G4915E; assay: Bioassay of gene-edited Drosophila melanogaster (feeding, mortality after 24 h); assay type: in vivo; parameters: key to LD50: AA.: All alive
Sf RyR_I4734M/G4891E = Sf RyR_I4734M/G4891E (Spodoptera frugiperda, UniProt A0A4P8L6R5, G4891E/I4734M); assay: cell-based
Sf RyR = Sf RyR (Spodoptera frugiperda, UniProt A0A4P8L6R5); assay: time-lapse [Ca2+]ER fluorescence assay, HEK293 cells; assay type: cell-based
Spodoptera frugiperda = test system: Spodoptera frugiperda; parameters: method as in PMID 31157506; settings: in vivo; cited from earlier work
chiRyR-I4657M/G4819E [3] = target: T4, chiRyR-I4657M/G4819E (Oryctolagus cuniculus, UniProt P11716, C4657M/F4564Y/G4819E/L4792S/R4563K); assay: cell-based; parameters: species or system rabbit
rRyR1 L4792S = target: T5, rRyR1 L4792S (Oryctolagus cuniculus, UniProt P11716, L4792S); assay: time-lapse [Ca2+]ER fluorescence assay, HEK293 cells; assay type: cell-based, rabbit; settings: n = 3
T5 construct: expressed in transfected cells

[4] = test system: Drosophila melanogaster RyR M4758I; assay: Bioassay of gene-edited Drosophila melanogaster (feeding, mortality after 24 h); assay type: in vivo; settings: 24 h feeding, n = 30
rRyR1 = rRyR1 (Oryctolagus cuniculus, UniProt P11716); assay: time-lapse [Ca2+]ER fluorescence assay, HEK293 cells; assay type: cell-based, rabbit
chiRyR [5] = target: T2, chiRyR; assay: biochemical; assay type: biochemical, rabbit
[6] = test system: diamondback moth (Plutella xylostella); settings: in vivo; cited from earlier work
chiRyR-I4657M/G4819E [7] = target: T4, chiRyR-I4657M/G4819E; assay: biochemical; assay type: biochemical, rabbit

For `Cc1cc(C(F)(C(F)(F)F)C(F)(F)F)ccc1NC(=O)c1cccc(I)c1C(=O)NC(C)(C)CS(C)(=O)=O` [FLU, flubendiamide], the EC50 (rRyR1 C4657I) was 8900 nM, the EC50 (chiRyR [1]) was 25.1 nM and the F/F0 (chiRyR [1]; FLU 1e-5 uM) was 0.9549 and 0.9506 and 0.9676. The F/F0 (chiRyR [1]; FLU 0.0001 uM) was 0.9787 and 0.9683 and 0.9464, the F/F0 (chiRyR [1]; FLU 0.01 uM) was 0.8614 and 0.8526 and 0.8697 and the F/F0 (chiRyR [1]; FLU 0.1 uM) was 0.4361 and 0.3436. For the same compound, the F/F0 (chiRyR [1]; FLU 1 uM) was 0.3549 and 0.3294 and 0.3747, the F/F0 (chiRyR [1]; FLU 10 uM) was 0.336 and 0.3416 and 0.3434 and the F/F0 (chiRyR [1]; FLU 50 uM) was 0.3259 and 0.3223 and 0.3318. The F/F0 (chiRyR [1]; FLU 100 uM) was 0.36 and 0.3376 and 0.3503, the EC50 (rRyR1 R4563K) was 3900 nM and the LD50 ([2]; 24 h feeding, n = 30) was “AA”. For the same compound, the lethality ([2]; in vivo) was “can no longer kill”, the EC50 (Sf RyR_I4734M/G4891E) was greater than 300000 nM and the F/F0 (Sf RyR_I4734M/G4891E; FLU 0.1 uM) was 0.9354 and 1.022 and 1.001. For the same compound, the F/F0 (Sf RyR_I4734M/G4891E; FLU 1 uM) was 1.08 and 0.9898 and 1.013, the F/F0 (Sf RyR_I4734M/G4891E; FLU 10 uM) was 0.9775 and 0.9916 and 0.9858 and the F/F0 (Sf RyR_I4734M/G4891E; FLU 50 uM) was 0.9682 and 0.9415 and 0.9568. The F/F0 (Sf RyR_I4734M/G4891E; FLU 100 uM) was 0.9687 and 0.9673 and 0.985, the F/F0 (Sf RyR_I4734M/G4891E; FLU 150 uM) was 1.01 and 0.9761 and 1.006 and the F/F0 (Sf RyR_I4734M/G4891E; FLU 200 uM) was 1.016 and 0.9681 and 1.012. The F/F0 (Sf RyR; FLU 1e-5 uM) was 0.9517 and 0.959 and 0.9803 and 0.9606 and 0.9626 and 0.9095, the F/F0 (Sf RyR; FLU 0.0001 uM) was 0.9669 and 0.9979 and 0.9587 and the F/F0 (Sf RyR; FLU 0.001 uM) was 0.9934 and 1.004 and 1.015 and 1.0081 and 0.9724 and 0.9466. The F/F0 (Sf RyR; FLU 0.005 uM) was 0.9953 and 0.9503 and 0.9362, the F/F0 (Sf RyR; FLU 0.01 uM) was 0.964 and 0.9628 and 0.9439 and 0.9365 and 0.909 and 0.8287 and the F/F0 (Sf RyR; FLU 0.1 uM) was 0.6874 and 0.7084 and 0.7834 and 0.606 and 0.5494 and 0.4561. For the same compound, the F/F0 (Sf RyR; FLU 0.3 uM) was 0.3286 and 0.3161 and 0.2878, the F/F0 (Sf RyR; FLU 0.5 uM) was 0.3948 and 0.4026 and 0.4259 and 0.3563 and 0.3618 and 0.3874 and the F/F0 (Sf RyR; FLU 1 uM) was 0.4531 and 0.5278 and 0.593 and 0.346 and 0.3891 and 0.3741. The F/F0 (Sf RyR; FLU 3 uM) was 0.282 and 0.3083 and 0.312, the F/F0 (Sf RyR; FLU 30 uM) was 0.2907 and 0.2708 and 0.2786 and the F/F0 (Sf RyR; FLU 50 uM) was 0.5223 and 0.4644 and 0.4746 and 0.282 and 0.2723 and 0.2725. For the same compound, the F/F0 (Sf RyR; FLU 100 uM) was 0.3008 and 0.2711 and 0.266, the F/F0 (Sf RyR; FLU 150 uM) was 0.2772 and 0.2807 and 0.3032 and the F/F0 (Sf RyR; FLU 200 uM) was 0.2827 and 0.3427 and 0.3531. The EC50 (Sf RyR; n = 3, read-out: EC50) was 59.3 nM, the fold decreased sensitivity (Spodoptera frugiperda) was 5,400 fold and the F/F0 (chiRyR-I4657M/G4819E [3]; FLU 1e-5 uM) was 0.9575 and 0.97 and 0.9884. For the same compound, the F/F0 (chiRyR-I4657M/G4819E [3]; FLU 0.1 uM) was 0.9705 and 0.977 and 1.0074, the F/F0 (chiRyR-I4657M/G4819E [3]; FLU 0.5 uM) was 0.9668 and 0.9819 and 0.9464 and the F/F0 (chiRyR-I4657M/G4819E [3]; FLU 1 uM) was 0.9823 and 0.9988 and 0.9262. The F/F0 (chiRyR-I4657M/G4819E [3]; FLU 10 uM) was 0.9522 and 0.929 and 0.9507, the F/F0 (chiRyR-I4657M/G4819E [3]; FLU 50 uM) was 0.9714 and 0.9397 and 0.895 and the F/F0 (chiRyR-I4657M/G4819E [3]; FLU 100 uM) was 0.9721 and 0.9871 and 0.9807. For the same compound, the F/F0 (chiRyR-I4657M/G4819E [3]; FLU 200 uM) was 0.9521 and 0.9361 and 0.9719, the “effect of the double mutation on activity” value (chiRyR-I4657M/G4819E [3]; time-lapse assay) was “almost completely abolished” and the EC50 (rRyR1 L4792S) was 209 nM. For the same compound, the LD50 [4] was 10.4 µM, the EC50 (rRyR1) was 4500 nM and the F/F0 (rRyR1; FLU 0.01 uM) was 0.9514 and 0.951 and 0.9574. For the same compound, the F/F0 (rRyR1; FLU 0.3 uM) was 0.9294 and 0.929 and 0.9697, the F/F0 (rRyR1; FLU 1 uM) was 0.9591 and 0.9606 and 0.9686 and the F/F0 (rRyR1; FLU 3 uM) was 0.9637 and 0.9616 and 0.9316. For the same compound, the F/F0 (rRyR1; FLU 10 uM) was 0.9738 and 0.9803 and 0.9687, the F/F0 (rRyR1; FLU 30 uM) was 0.9272 and 0.9023 and 0.8951 and the F/F0 (rRyR1; FLU 100 uM) was 0.8351 and 0.825 and 0.8009. The F/F0 (rRyR1; FLU 150 uM) was 0.7879 and 0.7717 and 0.7578, the EC50 (chiRyR [5]) was 4 ± 1.4 nM and the “[3H]ryanodine binding (B/Bmax)” value (chiRyR [5]; FLU 0.010 uM) was 0.258 and 0.168 and 0.293 and 0.246. The “[3H]ryanodine binding (B/Bmax)” value (chiRyR [5]; FLU 0.100 uM) was 0.203 and 0.262 and 0.293 and 0.332, the “[3H]ryanodine binding (B/Bmax)” value (chiRyR [5]; FLU 1.000 uM) was 0.230 and 0.187 and 0.324 and the “[3H]ryanodine binding (B/Bmax)” value (chiRyR [5]; FLU 10.000 uM) was 0.281 and 0.305 and 0.277 and 0.254. For the same compound, the “[3H]ryanodine binding (B/Bmax)” value (chiRyR [5]; FLU 100.000 uM) was 0.242 and 0.340 and 0.234 and 0.262, the “fold decrease in sensitivity” value [6] was greater than 200 fold and the “[3H]ryanodine binding (B/Bmax)” value (chiRyR-I4657M/G4819E [7]; FLU 10.000 uM) was 0.017 and 0.021 and 0.023 and 0.012. The “effect of the double mutation on activity” value (chiRyR-I4657M/G4819E [7]; [3H]ryanodine binding assay) was “almost completely abolished”.
